Laboratory results as given in article PMC9942528 (Journal of medicinal chemistry, 2022).
Like-named read-outs stand apart in the source and are kept apart here. Marks after values point to notes of the source that are not given here.

Legend:
[1] = Stability assay in rat liver microsomes; type: in vitro ADME; conditions: for microsomal CLint at 2 h, 10 µM / half-life at 2 h, 10 µM: rat, rat liver microsomes; for microsomal CLint at 2 h, 10 µM: pH 7.4; for half-life at 2 h, 10 µM: pH 7.4, half-life; for Metabolic stability, % after 30 min incubation / less stable than (R)- and (S)-11b, (R)- and (S)-11c, and 2: rat microsomes; for Metabolic stability, % after 30 min incubation: 10 μM, parent remaining; for less stable than (R)- and (S)-11b, (R)- and (S)-11c, and 2: recovery after 30 min
[2] = test system: mouse microglial N9 cells; assay: Cytotoxicity, MTT assay in N9 cells; type: cell-based
[3] = test system: murine N9 cells; assay: ELISA of TNF-α and IL-1β in N9 cells, resting and LPS-stimulated; type: cell-based, mouse; conditions: for release of IL-1β and TNF-α under resting conditions: 0.5 to 5 μM; for effect on LPS-induced cytokines (IL-1β, TNF-α) production: LPS 100 ng/mL 24 h
[4] = target: T1, human FPR2 (Homo sapiens, UniProt P25090); assay: Ca2+ mobilization; conditions: for increase in FPR2 potency as compared to 2: ratio of EC50 values
T1 sequence (P25090 1-351): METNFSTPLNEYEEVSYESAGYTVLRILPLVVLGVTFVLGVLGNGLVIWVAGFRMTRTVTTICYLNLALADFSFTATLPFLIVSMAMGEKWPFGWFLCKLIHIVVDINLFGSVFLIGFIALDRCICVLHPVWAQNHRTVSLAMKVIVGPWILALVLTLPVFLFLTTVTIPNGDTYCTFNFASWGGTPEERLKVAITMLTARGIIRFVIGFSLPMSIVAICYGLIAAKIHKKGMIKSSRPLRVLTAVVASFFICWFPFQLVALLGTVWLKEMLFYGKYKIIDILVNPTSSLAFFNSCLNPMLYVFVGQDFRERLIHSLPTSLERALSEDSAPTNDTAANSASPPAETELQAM

[5] = test system: rat primary microglial cells; assay: Nitric oxide; type: cell-based; conditions: for effect on LPS-induced NO production: 0.1 μM, LPS 100 ng/mL 24 h; for effect on NO production under resting conditions: rat primary microglial cells
[6] = test system: caspase-3; assay: Caspase-3 activity in rat primary microglial cells; type: cell-based; conditions: 0.1 μM, LPS 100 ng/mL 24 h
[7] = test system: rat primary microglial cells; assay: LDH release assay in rat primary microglial cells; conditions: for effect on LPS-induced cell death (LDH release): 0.1 μM, LPS 100 ng/mL 24 h; for effect on cell viability (LDH) under resting conditions: rat primary microglial cells
[8] = target: T1, human FPR2; conditions: functional antagonism vs WKYMVM
[9] = In vivo pharmacokinetics in mice; conditions: for Tmax: male, CD-1, mouse, plasma
[10] = rat microsomes; ref [25]; cited from earlier work
[11] = test system: rat primary microglial cells; conditions: rat primary microglial cultures stimulated with LPS; ref [25]; cited from earlier work
[12] = hCMEC/D3 cells; ref [25]; cited from earlier work
[13] = test system: mouse hippocampal organotypic cultures; conditions: OHCs stimulated with LPS, pre-treatment; ref [27]; cited from earlier work
[14] = test system: APP/PS1 mouse model; conditions: systemic administration, ref [28]; cited from earlier work

## N#Cc1ccc(C[C@H](NC(=O)Nc2ccc(F)cc2)C(=O)NC2CCCCNC2=O)cc1 (stereo partly drawn) [(S)-11a, (2S)-3-(4-Cyanophenyl)-2-(3-(4-fluorophenyl)ureido)-N-(2-oxoazepan-3-yl)propenamide]
[1]
  microsomal CLint at 2 h, 10 µM: 4.4 µL/min/mg
  half-life at 2 h, 10 µM: 157 min
[2]
  cytotoxic effect in the MTT test: did not exert any cytotoxic effects
[3]
  release of IL-1β and TNF-α under resting conditions: did not induce the release
  effect on LPS-induced cytokines (IL-1β, TNF-α) production: effectively decrease LPS-induced cytokines production
[4]
  increase in FPR2 potency as compared to 2: 20 fold

## N#Cc1ccc(C[C@H](NC(=O)Nc2ccc(F)cc2)C(=O)N2CCCCC2)cc1 [(S)-11b, (S)-1-(3-(4-Cyanophenyl)-1-oxo-1-(piperidin-1-yl)propan-2-yl)-3-(4-fluorophenyl)urea]
[1]
  Metabolic stability, % after 30 min incubation: 34%
  microsomal CLint at 2 h, 10 µM: 13.9 µL/min/mg
[2]
  cytotoxic effect in the MTT test: did not exert any cytotoxic effects
[4]
  increase in FPR2 potency as compared to 2: 4 fold

## N#Cc1ccc(C[C@H](NC(=O)Nc2ccc(F)cc2)C(=O)N2CCCC2)cc1 [(S)-11c, (S)-1-(3-(4-Cyanophenyl)-1-oxo-1-(pyrrolidin-1-yl)propan-2-yl)-3-(4-fluorophenyl)urea]
[1]
  Metabolic stability, % after 30 min incubation: 65%
  microsomal CLint at 2 h, 10 µM: 6.2 µL/min/mg
[2]
  cytotoxic effect in the MTT test: did not exert any cytotoxic effects
[4]
  increase in FPR2 potency as compared to 2: equipotent

## N#Cc1ccc(C[C@H](NC(=O)Nc2ccc(F)cc2)C(=O)N2CCc3ccccc32)cc1 [(S)-11e, (S)-1-(3-(4-Cyanophenyl)-1-(indolin-1-yl)-1-oxopropan-2-yl)-3-(4-fluorophenyl)urea]
[1]
  microsomal CLint at 2 h, 10 µM: 33 µL/min/mg
  half-life at 2 h, 10 µM: 21 min
  less stable than (R)- and (S)-11b, (R)- and (S)-11c, and 2: 2–3 fold
[3]
  release of IL-1β and TNF-α under resting conditions: did not induce the release
  effect on LPS-induced cytokines (IL-1β, TNF-α) production: effectively decrease LPS-induced cytokines production
[5]
  effect on LPS-induced NO production: effectively blocked
  effect on NO production under resting conditions: did not induce any effect
[6]
  effect on LPS-induced activation of caspase-3: significantly reduced this activation
[7]
  effect on LPS-induced cell death (LDH release): effectively blocked LPS-induced cell death
  effect on cell viability (LDH) under resting conditions: did not induce any effect

## N#Cc1ccc(C[C@H](NC(=O)Nc2ccc(F)cc2)C(=O)N2CCc3ccccc3C2)cc1 [(S)-11f, (S)-1-(3-(4-Cyanophenyl)-1-(3,4-dihydroisoquinolin-2(1H)-yl)-1oxopropan-2-yl)-3-(4-fluorophenyl)urea]
[1]
  less stable than (R)- and (S)-11b, (R)- and (S)-11c, and 2: 2–3 fold
[8]
  IC50 at FPR2, range in words: nanomolar range

## N#Cc1ccc(C[C@H](NC(=O)Nc2ccc(F)cc2)C(=O)N2CCC(F)(F)CC2)cc1 [(S)-11h, (S)-1-(3-(4-Cyanophenyl)-1-(4,4-difluoropiperidin-1-yl)-1-oxopropan-2-yl)-3-(4-fluorophenyl)urea]
[2]
  cytotoxic effect in the MTT test: did not exert any cytotoxic effects
[4]; 11h vs 11b
  loss of FPR2 potency versus the non-substituted counterpart: 20 fold

## N#Cc1ccc(C[C@H](NC(=O)Nc2ccc(F)cc2)C(=O)N2CCc3ccc(F)cc32)cc1 [(S)-11l, (S)-1-(3-(4-Cyanophenyl)-1-(6-fluoroindolin-1-yl)-1-oxopropan-2-yl)-3-(4-fluorophenyl)urea]
[1]
  Metabolic stability, % after 30 min incubation: 33%
[3]
  release of IL-1β and TNF-α under resting conditions: did not induce the release
  effect on LPS-induced cytokines (IL-1β, TNF-α) production: effectively decrease LPS-induced cytokines production
[5]
  effect on LPS-induced NO production: effectively blocked
  effect on NO production under resting conditions: did not induce any effect
[6]
  effect on LPS-induced activation of caspase-3: significantly reduced this activation
[9]; ip, 10 mg/kg
  Tmax: 30 min
[9]; iv, 1 mg/kg
  Tmax: 5 min
[9]; mice, i.p. 10 mg/kg
  blood-brain barrier permeation: able to permeate the blood–brain barrier and to accumulate in the brain
[9]; mice, i.v. 1 mg/kg
  time until which the compound was detectable in plasma: 4 h
[7]
  effect on LPS-induced cell death (LDH release): effectively blocked LPS-induced cell death
  effect on cell viability (LDH) under resting conditions: did not induce any effect

## N#Cc1ccc(C[C@H](NC(=O)Nc2ccc(F)cc2)C(=O)NCC2(c3ccc(F)c(Cl)c3)CC2)cc1 [Compound 2]
[10]
  Metabolic stability, % after 30 min incubation: 33^b %
[11]
  release of IL-1β and TNF-α: reduces the release
[12]
  efflux ratio ER (BA/AB): 2.6
[13]
  release of TNF-α and IL-1β: attenuated the release of TNF-α and IL-1β
[14]
  neuronal survival, microglial cell density and plaque load: improved neuronal survival and decreased microglial cell density and plaque load
[4]; EC50 FPR1 vs EC50 FPR2
  selectivity FPR2 versus FPR1: almost equipotent at both receptors
